The results in this text go back to ChEMBL document CHEMBL5291721, “A preclinical secondary pharmacology resource illuminates target-adverse drug reaction associations of marketed drugs” (Nat Commun, 2023).

In general, AC50 refers to the concentration at which the activity in the assay is half-maximal. A low value points to activity at low concentration.

One assay has as its target T1, Androgen receptor (Homo sapiens, UniProt P10275).
T1 sequence (P10275 whole entry): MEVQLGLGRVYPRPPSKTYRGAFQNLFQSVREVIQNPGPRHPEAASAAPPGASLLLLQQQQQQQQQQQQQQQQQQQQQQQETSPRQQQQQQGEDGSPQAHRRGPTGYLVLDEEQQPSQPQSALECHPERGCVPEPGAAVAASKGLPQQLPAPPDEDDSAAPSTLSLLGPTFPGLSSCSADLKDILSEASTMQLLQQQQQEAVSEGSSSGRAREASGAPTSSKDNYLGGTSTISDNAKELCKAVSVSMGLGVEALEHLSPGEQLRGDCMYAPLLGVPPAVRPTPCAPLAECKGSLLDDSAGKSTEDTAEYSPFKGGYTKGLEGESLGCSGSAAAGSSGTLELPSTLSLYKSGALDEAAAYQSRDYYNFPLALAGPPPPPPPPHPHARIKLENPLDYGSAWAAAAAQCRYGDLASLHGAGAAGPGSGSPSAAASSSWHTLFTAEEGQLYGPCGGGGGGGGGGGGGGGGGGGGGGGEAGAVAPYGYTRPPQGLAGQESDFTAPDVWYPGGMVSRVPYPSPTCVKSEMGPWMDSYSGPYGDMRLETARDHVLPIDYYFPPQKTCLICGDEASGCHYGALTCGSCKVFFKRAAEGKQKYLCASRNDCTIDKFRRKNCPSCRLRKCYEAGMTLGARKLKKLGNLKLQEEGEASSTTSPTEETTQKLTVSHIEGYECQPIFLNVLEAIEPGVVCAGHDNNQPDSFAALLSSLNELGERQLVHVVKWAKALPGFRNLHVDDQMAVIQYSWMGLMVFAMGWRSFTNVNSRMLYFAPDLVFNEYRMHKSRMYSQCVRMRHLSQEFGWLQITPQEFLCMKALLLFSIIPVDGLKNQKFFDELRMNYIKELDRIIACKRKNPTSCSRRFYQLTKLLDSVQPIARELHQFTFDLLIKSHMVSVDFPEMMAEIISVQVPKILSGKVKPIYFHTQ

For assay [1], the target named is Gamma-aminobutyric acid receptor subunit alpha-1/alpha-2/beta-2/gamma-2 (Homo sapiens, UniProt P14867+P18507+P47869+P47870). Format: protein-complex assay.
Sequence of Gamma-aminobutyric acid receptor subunit alpha-1/alpha-2/beta-2/gamma-2 (P14867 whole entry): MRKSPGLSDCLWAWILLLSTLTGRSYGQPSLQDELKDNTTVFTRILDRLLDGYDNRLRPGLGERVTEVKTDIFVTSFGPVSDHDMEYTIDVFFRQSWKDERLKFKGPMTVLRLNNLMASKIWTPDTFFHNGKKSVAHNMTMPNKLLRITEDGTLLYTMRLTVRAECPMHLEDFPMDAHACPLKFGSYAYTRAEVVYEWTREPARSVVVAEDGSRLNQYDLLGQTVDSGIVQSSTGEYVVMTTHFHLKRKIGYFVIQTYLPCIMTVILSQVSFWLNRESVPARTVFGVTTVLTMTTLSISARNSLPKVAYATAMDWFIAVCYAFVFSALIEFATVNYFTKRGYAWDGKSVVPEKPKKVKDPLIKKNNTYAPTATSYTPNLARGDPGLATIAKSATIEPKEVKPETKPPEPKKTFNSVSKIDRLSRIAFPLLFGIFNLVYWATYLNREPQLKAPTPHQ
Sequence of Gamma-aminobutyric acid receptor subunit alpha-1/alpha-2/beta-2/gamma-2 (P47870 whole entry): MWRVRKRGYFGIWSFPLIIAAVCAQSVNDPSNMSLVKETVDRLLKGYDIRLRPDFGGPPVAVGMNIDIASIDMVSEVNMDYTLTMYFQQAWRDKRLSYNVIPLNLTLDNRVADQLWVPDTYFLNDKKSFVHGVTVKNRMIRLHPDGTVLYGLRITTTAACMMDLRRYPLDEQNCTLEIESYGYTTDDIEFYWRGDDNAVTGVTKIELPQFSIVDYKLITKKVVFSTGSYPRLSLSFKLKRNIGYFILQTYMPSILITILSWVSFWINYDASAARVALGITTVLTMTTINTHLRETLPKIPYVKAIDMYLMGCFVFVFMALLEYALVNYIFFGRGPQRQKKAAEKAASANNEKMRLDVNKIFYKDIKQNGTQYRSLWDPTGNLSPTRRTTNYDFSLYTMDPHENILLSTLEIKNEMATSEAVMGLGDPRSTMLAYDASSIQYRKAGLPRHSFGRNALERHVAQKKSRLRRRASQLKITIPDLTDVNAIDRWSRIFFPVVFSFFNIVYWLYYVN
Sequence of Gamma-aminobutyric acid receptor subunit alpha-1/alpha-2/beta-2/gamma-2 (P18507 whole entry): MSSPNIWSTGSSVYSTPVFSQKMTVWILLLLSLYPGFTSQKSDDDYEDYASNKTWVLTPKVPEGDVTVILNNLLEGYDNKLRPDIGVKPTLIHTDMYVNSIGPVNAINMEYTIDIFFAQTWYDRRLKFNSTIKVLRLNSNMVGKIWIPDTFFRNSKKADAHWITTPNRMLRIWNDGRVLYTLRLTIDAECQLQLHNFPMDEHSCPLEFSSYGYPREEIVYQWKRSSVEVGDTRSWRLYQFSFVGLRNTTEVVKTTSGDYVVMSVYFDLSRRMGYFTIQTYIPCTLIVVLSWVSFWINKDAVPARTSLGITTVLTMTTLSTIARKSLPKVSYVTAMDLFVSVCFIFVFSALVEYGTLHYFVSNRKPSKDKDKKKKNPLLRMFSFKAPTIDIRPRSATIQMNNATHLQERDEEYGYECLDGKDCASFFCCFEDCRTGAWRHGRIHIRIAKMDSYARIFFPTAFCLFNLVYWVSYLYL
Sequence of Gamma-aminobutyric acid receptor subunit alpha-1/alpha-2/beta-2/gamma-2 (P47869 whole entry): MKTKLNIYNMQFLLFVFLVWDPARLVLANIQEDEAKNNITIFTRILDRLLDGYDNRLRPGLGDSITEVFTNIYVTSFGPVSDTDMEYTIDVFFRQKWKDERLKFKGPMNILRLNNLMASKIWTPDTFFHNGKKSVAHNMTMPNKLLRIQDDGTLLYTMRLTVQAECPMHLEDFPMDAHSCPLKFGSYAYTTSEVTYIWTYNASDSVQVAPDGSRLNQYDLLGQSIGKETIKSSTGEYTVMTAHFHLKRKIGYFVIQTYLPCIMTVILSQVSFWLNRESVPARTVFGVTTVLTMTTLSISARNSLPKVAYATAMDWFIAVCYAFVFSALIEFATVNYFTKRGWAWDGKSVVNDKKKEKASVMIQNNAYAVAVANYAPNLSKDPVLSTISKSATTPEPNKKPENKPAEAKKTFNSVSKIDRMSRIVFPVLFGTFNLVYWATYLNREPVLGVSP

Some results are limits rather than exact numbers.
Also: assay procedure not described here.

As for `C[C@@H](O)[C@H]1C(=O)N2C(C(=O)O)=C([C@H]3CCCO3)S[C@H]12` [FAROPENEM], the AC50 (at Androgen receptor; in assay [1]) was more than 30 µM in each case.

As to `COCCOc1cnc(NS(=O)(=O)c2ccccc2)nc1` [GLYMIDINE], the AC50 (at Androgen receptor; in assay [1]) was more than 30 µM each time.

For `CCC(=O)O[C@]1(C(=O)COC(C)=O)CC[C@H]2[C@@H]3CCC4=CC(=O)CC[C@]4(C)[C@H]3[C@@H](O)C[C@@]21C` [HYDROCORTISONE ACEPONATE], the AC50 at Androgen receptor is 0.314 µM; in assay [1], more than 30 µM.

As for `Cc1cc(CCN2CCN(c3cccc(Cl)c3)CC2)n[nH]1` [MEPIPRAZOLE], the AC50 (at Androgen receptor; in assay [1]) was more than 30 µM throughout.

As for `CC[N+](C)(CC)CCOC(=O)C1c2ccccc2Oc2ccccc21` [METHANTHELINE], the AC50 (at Androgen receptor; in assay [1]) was more than 30 µM in each case.

`CC(c1ccc(Cl)c(Cl)c1)N1N=C(N)CC1=O` (stereo not drawn) [MUZOLIMINE]: the half-maximal activity concentration (AC50) (on Androgen receptor; in assay [1]) was more than 30 µM throughout.

On to `c1cc(CN2CCCNCCNCCCNCC2)ccc1CN1CCCNCCNCCCNCC1` [PLERIXAFOR], for which the AC50 (at Androgen receptor; in assay [1]) was more than 30 µM in each case.

Regarding `CCCC(=O)O[C@H]1[C@H](C)O[C@@H](O[C@H]2[C@H](N(C)C)[C@@H](O)[C@H](O[C@H]3[C@@H](CC=O)C[C@@H](C)[C@@H](O)/C=C/C=C/C[C@@H](C)OC(=O)C[C@@H](O)[C@@H]3OC)O[C@@H]2C)C[C@@]1(C)OC(=O)CC` [ROKITAMYCIN], the AC50 (on Androgen receptor; in assay [1]) was more than 30 µM throughout.

`c1ccc2[nH]c(-c3cscn3)nc2c1` [THIABENDAZOLE]: the AC50 (at Androgen receptor; in assay [1]) was more than 30 µM throughout.
